The record followed here is ChEMBL document CHEMBL1148279, “Effects of bisphosphonates on the growth of Entamoeba histolytica and Plasmodium species in vitro and in vivo” (J Med Chem, 2004).

Some results are limits rather than exact numbers.

A short description of one data set: in vitro. To be noted: human, KB cells (nasopharyngeal carcinoma).
Another data set deals with Entamoeba histolytica. The data set can be described thus: In vitro growth inhibition against Entamoeba histolytica. It counts as functional, organism-based.
Another data set relates to Plasmodium falciparum. The data set can be described thus: microbe, parasite or virus in culture.

Description for Plasmodium falciparum: In vitro growth inhibition against Plasmodium falciparum
Description for in vitro: Toxicity evaluated against human nasopharyngeal carcinoma KB cell line

`O=P(O)(O)C(O)(CCc1cccnc1)P(=O)(O)O`: the CC50 in the data set “in vitro” was > 804 µM. The IC50 in the data set with Entamoeba histolytica is > 200 µM.
For the compound `O=P(O)(O)C(NCCc1ccc(O)cc1)P(=O)(O)O` [(4-HYDROXYPHENETHYLAMINO)METHYLENEDIPHOSPHONIC ACID], the IC50 in the data set on Plasmodium falciparum and in the data set with Entamoeba histolytica was > 200 µM each time. In addition, the CC50 in “in vitro” was 99.8 µM.
As to `CC(C)CNC(P(=O)(O)O)P(=O)(O)O` [(ISOBUTYLAMINO)METHYLENEDIPHOSPHONIC ACID], the IC50 with Plasmodium falciparum and in the data set with Entamoeba histolytica was > 200 µM throughout. This compound also registered a CC50 in “in vitro” of 50.5 µM.
On to `CCCNC(P(=O)(O)O)P(=O)(O)O` [(PROPYLAMINO)METHYLENEDIPHOSPHONIC ACID], for which the IC50 in the data set on Plasmodium falciparum and with Entamoeba histolytica was > 200 µM in each case. In addition, half-maximal cytotoxicity in the data set “in vitro” (CC50) was put at 499 µM.
Regarding `O=P(O)(O)C(NC1CCCCC1)P(=O)(O)O` [(CYCLOHEXYLAMINO)METHYLENEDIPHOSPHONIC ACID], in the data set on Plasmodium falciparum, the IC50 is > 200 µM.
As for `CCCN(CCC)C(P(=O)(O)O)P(=O)(O)O` [(DIPROPYLAMINO)METHYLENEDIPHOSPHONIC ACID], the IC50 in the data set with Plasmodium falciparum and in the data set on Entamoeba histolytica was > 200 µM in each case. The CC50 in the data set “in vitro” came to 322 µM.
As to `O=P(O)(O)C(O)(Cc1ccncc1)P(=O)(O)O`, the CC50 in “in vitro” stood at 171 µM. Further, the IC50 in the data set with Entamoeba histolytica is > 200 µM.
Take `O=P(O)(O)C(N1CCCCCC1)P(=O)(O)O` [N-(HEXAMETHYLENEIMINO)METHYLENEBISPHOSPHONIC ACID]: the IC50 in the data set with Plasmodium falciparum and in the data set on Entamoeba histolytica was > 200 µM each time. Also, the CC50 in “in vitro” was > 1100 µM.
For the compound `CCCCCCCc1ccc(NC(P(=O)(O)O)P(=O)(O)O)cc1`, the CC50 in “in vitro” was found to be 211 µM. Moreover, 36.2 µM corresponded to half-maximal inhibition with Entamoeba histolytica (IC50).
In the case of `Cc1csc(NC(P(=O)(O)O)P(=O)(O)O)n1`, the IC50 in the data set on Plasmodium falciparum and in the data set with Entamoeba histolytica was > 200 µM in each case. In addition, the CC50 in the data set “in vitro” is 150 µM.
As to `CCOP(=O)(OCC)C(Nc1cc(C)ccn1)P(=O)(OCC)OCC`, the IC50 in the data set with Plasmodium falciparum and in the data set with Entamoeba histolytica was > 200 µM throughout. The CC50 in the data set “in vitro” turned out to be 127 µM.
Regarding `O=P(O)(O)CC(c1ccccn1)P(=O)(O)O` (stereo not given), the half-maximal inhibitory concentration (IC50) in the data set on Plasmodium falciparum and in the data set with Entamoeba histolytica was > 200 µM throughout. For the same compound, the CC50 in the data set “in vitro” is < 1.1 µM.
`CCCC(O)(P(=O)(O)O)P(=O)(O)O`: the CC50 in “in vitro” was > 967 µM. For the same compound, the IC50 with Entamoeba histolytica is > 200 µM.
Consider `O=P(O)(O)C(N(C1CCCCC1)C1CCCCC1)P(=O)(O)O` [(DICYCLOHEXYLAMINO)METHYLENEDIPHOSPHONIC ACID], for which the IC50 in the data set on Plasmodium falciparum and with Entamoeba histolytica was > 200 µM throughout. The CC50 in the data set “in vitro” is > 844 µM.
Turning to `O=P(O)(O)C(O)(Cc1c[nH]cn1)P(=O)(O)O`, the CC50 in the data set “in vitro” came to 41 µM. In addition, the IC50 in the data set on Entamoeba histolytica is > 200 µM.
For `Cc1cccnc1NC(P(=O)(O)O)P(=O)(O)O`, the IC50 with Entamoeba histolytica is > 200 µM.
Regarding `O=P(O)(O)CC(c1cccnc1)P(=O)(O)O` (stereo not given), the IC50 in the data set on Plasmodium falciparum and with Entamoeba histolytica was > 200 µM in each case. The same compound returned a CC50 in the data set “in vitro” of 1020 µM.
Take `CCn1c2ccccc2c2ccc(NC(P(=O)(O)O)P(=O)(O)O)cc21`: the values for the half-maximal inhibitory concentration (IC50) in the data set on Plasmodium falciparum and in the data set with Entamoeba histolytica were 104 µM and > 200 µM, respectively. Besides, the midpoint of cytotoxicity in “in vitro”, the CC50, lay at 710 µM.
In the same order, the values of `O=P(O)(O)C(N1CCC(O)CC1)P(=O)(O)O` are > 200 µM, > 200 µM and > 1010 µM.
Consider `CN(C)CCC(O)(P(=O)(O)O)P(=O)(O)O` [OLPADRONIC ACID], for which the CC50 in the data set “in vitro” was > 1050 µM. In addition, in the data set on Entamoeba histolytica, the IC50 is > 200 µM.
On to `O=P(O)(O)C(Nc1cc(Cl)cc(Cl)c1)P(=O)(O)O` [(3,5-DICHLOROPHENYLAMINO)METHYLENEDIPHOSPHONIC ACID], for which the IC50 in the data set with Plasmodium falciparum and in the data set on Entamoeba histolytica was > 200 µM each time. The compound further had a CC50 in the data set “in vitro” of 314 µM.
In the case of `O=P(O)(O)C(Nc1nccc2ccccc12)P(=O)(O)O`, the IC50 in the data set on Plasmodium falciparum is 50.4 µM; in the data set with Entamoeba histolytica, > 200 µM. In the data set “in vitro”, this compound showed a CC50 of 673 µM.
`NCCCC(O)(P(=O)(O)O)P(=O)(O)O` [ALENDRONIC ACID]: in the data set on Entamoeba histolytica, the IC50 was > 200 µM.
With `O=P(O)(O)C(N1CCSCC1)P(=O)(O)O` [THIOMORPHOLINOMETHYLENEDIPHOSPHONIC ACID], the IC50 with Plasmodium falciparum and in the data set with Entamoeba histolytica was > 200 µM each time. In addition, in the data set “in vitro”, the CC50 is > 1120 µM.
Regarding `O=C(O)c1cn(C2CC2)c2cc(N3CCN(CC(P(=O)(O)O)P(=O)(O)O)CC3)c(F)cc2c1=O`, the IC50 in the data set on Plasmodium falciparum and in the data set on Entamoeba histolytica was > 200 µM each time. Also, the CC50 in the data set “in vitro” is > 568 µM.
Regarding `O=P(O)(O)C(O)(Cc1ccccn1)P(=O)(O)O`, the IC50 with Entamoeba histolytica is > 200 µM.
Still for that read-out and setting: with `Cc1ncc([N+](=O)[O-])n1CCO` [METRONIDAZOLE] the figure was 3.2 µM.
As for `CCOP(=O)(OCC)C(Nc1ncccc1C)P(=O)(OCC)OCC`, in the data set “in vitro”, the CC50 was > 790 µM. Besides, the IC50 with Entamoeba histolytica was > 200 µM.
Regarding `O=P(O)(O)CC(c1ccncc1)P(=O)(O)O` (stereo not given), the IC50 in the data set on Plasmodium falciparum and with Entamoeba histolytica was > 200 µM in each case. Besides, in the data set “in vitro”, the cytotoxic concentration (CC50) is > 1120 µM.
Take `NCCCCCC(O)(P(=O)(O)O)P(=O)(O)O` [NERIDRONIC ACID]: the IC50 with Entamoeba histolytica is > 200 µM.
As to `NCCCCC(O)(P(=O)(O)O)P(=O)(O)O`, in the data set “in vitro”, half-maximal cytotoxicity (CC50) was put at 91 µM. Besides, the IC50 in the data set with Entamoeba histolytica was > 200 µM.
As to `O=P(O)(O)C(Nc1ccccn1)P(=O)(O)O`, the IC50 with Plasmodium falciparum and with Entamoeba histolytica was > 200 µM in each case. Also, the half-maximal cytotoxic concentration (CC50) in “in vitro” amounted to 465 µM.
For `CCc1cccc(NC(P(=O)(O)O)P(=O)(O)O)c1`, the IC50 with Plasmodium falciparum and in the data set with Entamoeba histolytica was > 200 µM in each case. Also, the CC50 in the data set “in vitro” is > 1020 µM.
As for `Nc1ccc(CC(O)(P(=O)(O)O)P(=O)(O)O)cc1`, the IC50 with Entamoeba histolytica is > 200 µM.
Consider `O=P(O)(O)C(Nc1ccc(Cl)cn1)P(=O)(O)O`, for which the IC50 is 10.6 µM in the data set on Plasmodium falciparum and 87 µM in the data set on Entamoeba histolytica. For the same compound, the CC50 in the data set “in vitro” was > 991 µM.
In the same order, the values of `O=P(O)(O)C(Nc1ncccc1OCc1ccccc1)P(=O)(O)O` are > 200 µM, > 200 µM and > 764 µM.
Taken in the same sequence, the figures for `CCCCCCCC(O)(P(=O)(O)O)P(=O)(O)O` were 26.7 µM, 22.3 µM and 308 µM.
Taken in the same sequence, the figures for `O=P(O)(O)C(O)(C1CCC1)P(=O)(O)O` [CYCLOBUTYL(HYDROXY)METHYLENEDIPHOSPHONIC ACID] were > 200 µM, > 200 µM and > 1220 µM.
Take `O=P(O)(O)C(Nc1cccnc1Cl)P(=O)(O)O`: the half-maximal inhibitory concentration (IC50) in the data set with Plasmodium falciparum and with Entamoeba histolytica was > 200 µM in each case. For the same compound, the CC50 in the data set “in vitro” is > 963 µM.
As to `O=P(O)(O)C(CNc1ccccn1)P(=O)(O)O`, the IC50 is 17 µM with Plasmodium falciparum and > 200 µM with Entamoeba histolytica. The compound further gave a CC50 in “in vitro” of 144 µM.
Taken in the same sequence, the figures for `O=P(O)(O)C(O)(C1CCCCC1)P(=O)(O)O` [CYCLOHEXYL(HYDROXY)METHYLENEDIPHOSPHONIC ACID] were > 200 µM, > 200 µM and 1090 µM.
Turning to `Cc1ccnc(NC(P(=O)(O)O)P(=O)(O)O)c1`, the IC50 in the data set on Plasmodium falciparum and in the data set on Entamoeba histolytica was > 200 µM in each case.
With `O=P(O)(O)C(CNc1ccncc1)P(=O)(O)O`, the 50% inhibitory concentration (IC50) in the data set with Plasmodium falciparum and with Entamoeba histolytica was > 200 µM in each case. The CC50 in “in vitro” came to 386 µM.
On to `O=P(O)(O)C(Nc1nc2ccccc2s1)P(=O)(O)O`, for which, in the data set on Plasmodium falciparum, the IC50 was > 200 µM. In addition, the CC50 in the data set “in vitro” was < 0.93 µM.
As for `CC(N)CC(O)(P(=O)(O)O)P(=O)(O)O` (stereo not given), in “in vitro”, the half-maximal cytotoxic concentration (CC50) was > 977 µM. Further, the IC50 in the data set with Entamoeba histolytica is > 200 µM.

Broadly, the CC50 is the concentration that lowers cell viability or growth by half. As usually defined, the IC50 is the concentration at which inhibition is half-maximal. Higher therefore signals weaker potency.
